From paper PMC11146149 (RSC Advances, 2024)

Key:
Type in all cases: biochemical
COX-1 = target: T1, COX-1 (Ovis aries, UniProt P05979); assay: In vitro COX inhibitory assay; settings: for inhibition at 50 µg/mL / inhibition at 100 µg/mL / inhibition at 150 µg/mL: read-out: Inhibition of COX-1 (%); for Inhibition of COX-1 in comparison to indomethacin: result in words
T1 sequence (P05979 25-600): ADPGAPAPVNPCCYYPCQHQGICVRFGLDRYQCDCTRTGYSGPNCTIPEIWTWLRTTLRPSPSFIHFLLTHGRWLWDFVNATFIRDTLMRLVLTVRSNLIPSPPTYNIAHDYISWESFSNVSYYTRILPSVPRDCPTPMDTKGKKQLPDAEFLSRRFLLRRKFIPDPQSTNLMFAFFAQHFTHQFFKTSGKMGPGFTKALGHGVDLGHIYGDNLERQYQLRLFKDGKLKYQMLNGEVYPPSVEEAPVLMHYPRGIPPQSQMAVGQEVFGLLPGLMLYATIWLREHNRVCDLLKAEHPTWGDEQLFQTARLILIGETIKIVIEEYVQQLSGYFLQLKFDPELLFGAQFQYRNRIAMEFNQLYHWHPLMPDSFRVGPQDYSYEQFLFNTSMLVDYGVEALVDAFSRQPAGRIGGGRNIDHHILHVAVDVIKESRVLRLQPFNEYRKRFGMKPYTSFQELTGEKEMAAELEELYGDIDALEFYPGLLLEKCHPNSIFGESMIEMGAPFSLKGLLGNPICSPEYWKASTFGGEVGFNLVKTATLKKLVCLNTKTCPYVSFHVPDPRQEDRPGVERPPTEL

egg albumin = target: T2, egg albumin (Gallus gallus, UniProt P01012); assay: Inhibition of protein denaturation method; settings: read-out: Inhibition of protein denaturation (%)
T2 sequence (P01012 2-386): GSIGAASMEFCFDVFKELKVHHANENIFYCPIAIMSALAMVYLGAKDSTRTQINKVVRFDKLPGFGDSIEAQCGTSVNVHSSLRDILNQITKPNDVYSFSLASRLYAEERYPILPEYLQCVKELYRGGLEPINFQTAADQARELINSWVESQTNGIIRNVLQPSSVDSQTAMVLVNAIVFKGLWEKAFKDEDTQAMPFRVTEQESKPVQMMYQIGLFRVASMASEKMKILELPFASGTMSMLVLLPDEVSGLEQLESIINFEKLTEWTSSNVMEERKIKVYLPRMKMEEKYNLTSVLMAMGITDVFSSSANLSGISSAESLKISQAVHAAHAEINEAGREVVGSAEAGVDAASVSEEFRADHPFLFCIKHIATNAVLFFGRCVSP

COX-2 = target: T3, COX-2 (Homo sapiens, UniProt P35354); assay: In vitro COX inhibitory assay; settings: for Selectivity index: COX-1/COX-2 selectivity index; for inhibition at 50 µg/mL / inhibition at 100 µg/mL / inhibition at 150 µg/mL: read-out: Inhibition of COX-2 (%); for Inhibition of COX-2 in comparison to indomethacin: result in words
T3 sequence (P35354 18-604): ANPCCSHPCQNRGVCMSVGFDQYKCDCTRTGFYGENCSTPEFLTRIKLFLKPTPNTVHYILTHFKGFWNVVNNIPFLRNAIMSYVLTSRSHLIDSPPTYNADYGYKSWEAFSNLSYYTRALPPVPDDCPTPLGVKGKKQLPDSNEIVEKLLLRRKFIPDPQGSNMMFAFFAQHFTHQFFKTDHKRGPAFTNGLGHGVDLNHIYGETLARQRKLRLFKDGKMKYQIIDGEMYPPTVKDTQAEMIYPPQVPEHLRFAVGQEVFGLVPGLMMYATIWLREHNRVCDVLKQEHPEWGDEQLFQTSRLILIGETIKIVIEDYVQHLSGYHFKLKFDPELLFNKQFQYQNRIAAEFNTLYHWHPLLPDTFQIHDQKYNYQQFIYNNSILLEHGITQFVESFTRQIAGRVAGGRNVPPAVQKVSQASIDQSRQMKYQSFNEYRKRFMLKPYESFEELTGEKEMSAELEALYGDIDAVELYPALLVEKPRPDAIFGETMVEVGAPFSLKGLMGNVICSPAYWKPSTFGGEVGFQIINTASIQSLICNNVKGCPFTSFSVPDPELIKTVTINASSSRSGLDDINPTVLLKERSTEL

Structure (SMILES) | IC50 (COX-1) | inhibition at 50 µg/mL (COX-1) | inhibition at 100 µg/mL (COX-1) | inhibition at 150 µg/mL (COX-1) | inhibition at 50 µg/mL (egg albumin) | inhibition at 100 µg/mL (egg albumin) | inhibition at 200 µg/mL (egg albumin) | inhibition at 300 µg/mL (egg albumin) | IC50 (COX-2) | Selectivity index (COX-2) | inhibition at 50 µg/mL (COX-2) | inhibition at 100 µg/mL (COX-2) | inhibition at 150 µg/mL (COX-2) | Inhibition of COX-1 in comparison to indomethacin (COX-1) | Inhibition of COX-2 in comparison to indomethacin (COX-2)
NC1=NC(c2ccco2)n2nc(C(=O)Nc3ccc(S(N)(=O)=O)cc3)nc2N1 (centres unmarked) [Compound 4, 5-Amino-7-(furan-2-yl)-N-(4-sulfamoylphenyl)-4,7-dihydro-[1,2,4]-triazolo[1,5-a][1,3,5]triazine-2-carboxamide] | 99.5 µM | 62.43 ± 0.01% | 80.64 ± 0.01% | 90.02 ± 0.02% | 90.3% | 95% | 99.2% | 91.3% | 69 µM | 1.44 | 90.03 ± 0.02% | 95.11 ± 0.01% | 98.92 ± 0.02% | – | –
Cc1ccccc1C1N=C(N)Nc2nc(C(=O)Nc3ccc(S(N)(=O)=O)cc3)nn21 (centres unmarked) [Compound 5, 5-Amino-N-(4-sulfamoylphenyl)-7-(o-tolyl)-4,7-dihydro-[1,2,4]-triazolo[1,5-a][1,3,5]triazine-2-carboxamide] | 180 µM | 32.51 ± 0.03% | 56.64 ± 0.01% | 74.32 ± 0.03% | 59.7% | 64.5% | 70.3% | 78.2% | 97.7 µM | 1.84 | 60.01 ± 0.05% | 67.25 ± 0.02% | 75.31 ± 0.01% | – | –
NC1=NC(/C=C/c2ccccc2)n2nc(C(=O)Nc3ccc(S(N)(=O)=O)cc3)nc2N1 (centres unmarked) [Compound 6, (E)-5-Amino-7-styryl-N-(4-sulfamoylphenyl)-4,7-dihydro-[1,2,4]-triazolo[1,5-a][1,3,5]triazine-2-carboxamide] | – | – | – | – | 53.7% | 58.4% | 67.4% | 72.1% | – | – | – | – | – | less inhibition | less inhibition
NC1=NC(C2N=C(N)Nc3nc(C(=O)Nc4ccc(S(N)(=O)=O)cc4)nn32)n2nc(C(=O)Nc3ccc(S(N)(=O)=O)cc3)nc2N1 (centres unmarked) [Compound 7, 5,5′-Diamino-N2,N2′-bis(4-sulfamoylphenyl)-4,4′,7,7′-tetrahydro-[7,7′-bi[1,2,4]triazolo[1,5-a][1,3,5]triazine]-2,2′-dicarboxamide] | – | – | – | – | 54.7% | 59.5% | 65.3% | 73.2% | – | – | – | – | – | less inhibition | less inhibition
NC1=NC(c2ccccc2Cl)n2nc(C(=O)Nc3ccc(S(N)(=O)=O)cc3)nc2N1 (centres unmarked) [Compound 8, 5-Amino-7-(2-chlorophenyl)-N-(4-sulfamoylphenyl)-4,7-dihydro-[1,2,4]-triazolo[1,5-a][1,3,5]triazine-2-carboxamide] | 186 µM | 30.12 ± 0.02% | 55.41 ± 0.05% | 71.23 ± 0.05% | 59.5% | 64.2% | 70% | 77.9% | 89.3 µM | 2.07 | 62.64 ± 0.01% | 64.78 ± 0.01% | 71.61 ± 0.01% | – | –
COc1ccc(C2N=C(N)Nc3nc(C(=O)Nc4ccc(S(N)(=O)=O)cc4)nn32)cc1 (centres unmarked) [Compound 9, 5-Amino-7-(4-methoxyphenyl)-N-(4-sulfamoylphenyl)-4,7-dihydro-[1,2,4]-triazolo[1,5-a][1,3,5]triazine-2-carboxamide] | – | – | – | – | 51% | 55.8% | 61.6% | 69.5% | – | – | – | – | – | less inhibition | less inhibition
NC1=NC(c2cccc3ccccc23)n2nc(C(=O)Nc3ccc(S(N)(=O)=O)cc3)nc2N1 (centres unmarked) [Compound 10, 5-Amino-7-(naphthalen-1-yl)-N-(4-sulfamoylphenyl)-4,7-dihydro-[1,2,4]-triazolo[1,5-a][1,3,5]triazine-2-carboxamide] | – | – | – | – | 55% | 59.7% | 65.5% | 73.4% | – | – | – | – | – | less inhibition | less inhibition
NC1=NC(c2ccccc2O)n2nc(C(=O)Nc3ccc(S(N)(=O)=O)cc3)nc2N1 (centres unmarked) [Compound 11, 5-Amino-7-(2-hydroxyphenyl)-N-(4-sulfamoylphenyl)-4,7-dihydro-[1,2,4]-triazolo[1,5-a][1,3,5]triazine-2-carboxamide] | 141 µM | 41.28 ± 0.04% | 63.43 ± 0.04% | 80.12 ± 0.03% | 83.4% | 88.2% | 93.9% | 98.2% | 96.7 µM | 1.46 | 60.3 ± 0.05% | 81.99 ± 0.01% | 98.97 ± 0.06% | – | –
CN(C)c1ccc(C2N=C(N)Nc3nc(C(=O)Nc4ccc(S(N)(=O)=O)cc4)nn32)cc1 (centres unmarked) [Compound 12, 5-Amino-7-(4-(dimethylamino)phenyl)-N-(4-sulfamoylphenyl)-4,7-dihydro-[1,2,4]-triazolo[1,5-a][1,3,5]triazine-2-carboxamide] | 192 µM | 28.64 ± 0.04% | 53.24 ± 0.03% | 70.68 ± 0.04% | 55.8% | 60.5% | 66.3% | 74.2% | 92.9 µM | 2.06 | 59.1 ± 0.01% | 80.98 ± 0.02% | 98.4 ± 0.02% | – | –
NC1=NC(c2cccc(O)c2)n2nc(C(=O)Nc3ccc(S(N)(=O)=O)cc3)nc2N1 (centres unmarked) [Compound 13, 5-Amino-7-(3-hydroxyphenyl)-N-(4-sulfamoylphenyl)-4,7-dihydro-[1,2,4]-triazolo[1,5-a][1,3,5]triazine-2-carboxamide] | – | – | – | – | 55% | 59.8% | 65.7% | 73.6% | – | – | – | – | – | less inhibition | less inhibition
